Literature values as cited in patent US20260076921A1, “Transdermal Pharmaceutical Formulations for the Treatment of Multiple Sclerosis” (Pike Therapeutics Inc., priority 2020, published 2026).
Several values for one entry are separate records, joined by “and”; a condition that tells them apart may be missing. Identical values can stand only once.

Assays:
[1] = 6.2 mg/day dose
[2] = literature ranges
[3] = target: CB1

Compound	effect on knee-joint swelling [1]	Oral bioavailability [2]	Ki [3] [nM]
C=C(C)[C@@H]1CCC(C)=C[C@H]1c1c(O)cc(CCCCC)cc1O [CBD, 2-[(1R,6R)-6-isopropenyl-3-methylcyclohex-2-en-1-yl]-5-pentylbenzene-1,3-diol]	very effective to reduce knee-joint swelling	13-19% and 5-6%	
CCCCCn1cc(C(=O)c2ccc(Cl)c3ccccc23)c2ccccc21 [JWH-398]			2.3
CCCCCn1cc(C(=O)c2cccc3cccc(Br)c23)c2ccccc21 [JWH-424]			20.9
CCCCC/C=C\C/C=C\C/C=C\C/C=C\CCCC(=O)N[C@H](C)CO [Methanandamide]			17.9
